Assay results as given in publication PMC3806465, “Discovery and Evaluation of Thiazinoquinones as Anti-Protozoal Agents” (Marine Drugs, 2013).
Where two headings read alike, the source gives them in different places.

What was measured:
[1] = tested on: L6 rat skeletal myoblast cell line; test: Cytotoxicity against L6 cells; format: cell-based
Procedure: (§1) The in vitro activities against the protozoan parasites T.b. rhodesiense, T. cruzi, L. donovani, and P. falciparum and cytotoxicity assessment against L6 cells were determined as reported elsewhere.

[2] = tested on: Trypanosoma brucei rhodesiense, STIB 900 strain, trypomastigotes stage; test: In vitro activity against T. b. rhodesiense; format: cell-based
Procedure: as §1

[3] = tested on: Trypanosoma cruzi, Tulahuen C4 strain, amastigotes stage; test: In vitro activity against T. cruzi; format: cell-based
Procedure: as §1

[4] = tested on: Plasmodium falciparum, K1 strain, IEF stage; test: In vitro activity against P. falciparum K1; format: cell-based; conditions: for SI Pf: Selectivity index for P. falciparum = IC50 L6/IC50 Pf
Procedure: as §1

[5] = tested on: Leishmania donovani, MHOM-ET-67/L82 strain, amastigote/axenic stage; test: In vitro activity against L. donovani; format: cell-based
Procedure: as §1

[6] = Rattus norvegicus, Myoblast, cytotoxicity, L6 rat skeletal myoblasts, average of two independent assays, read-out: IC50 L6
[7] = Trypanosoma brucei, STIB 900, trypomastigotes, average of two independent assays, read-out: IC50 T. b. rhod.
[8] = Trypanosoma cruzi, TULAHUEN, Tulahuen C4, amastigotes, average of two independent assays, read-out: IC50 T. cruzi
[9] = Plasmodium falciparum, K1 dual drug resistant strain, IEF stage, average of two independent assays, read-out: IC50 P. falc. K1
[10] = Leishmania donovani, MHOM-ET-67/L82, axenic amastigotes, average of two independent assays, read-out: IC50 L. don.

SMILES	IC50 [1, 6] [µM]	IC50 [2, 7] [µM]	IC50 [3, 8] [µM]	IC50 [4, 9] [nM]	SI Pf [4]	IC50 [5, 10] [µM]	melting point	further results
O=C(O)CNC(=O)c1ccc2c(n1)C(=O)C1=C(C2=O)S(=O)(=O)C=CN1 [Compound 8k, 2-(1,1-Dioxido-5,10-dioxo-5,10-dihydro-4H-[1,4]thiazino[2,3-g]quinoline-7-carboxamido)acetic Acid]	110	42	160	1200	93	> 280	–	–
O=C(NCCc1ccccc1)c1ccc2c(n1)C(=O)C1=C(C2=O)S(=O)(=O)C=CN1 [Compound 8e, N-Phenethyl-5,10-dioxo-5,10-dihydro-4H-[1,4]thiazino[2,3-g]quinoline-7-carboxamide 1,1-Dioxide]	52	0.67	140	6500	8	160	290 °C (dec.)	SI (T. brucei rhodesiense) ([2]; selectivity towards T. brucei rhodesiense versus L6): 78
COC(=O)CNC(=O)c1ccc2c(n1)C(=O)C1=C(C2=O)S(=O)(=O)CCN1 [Compound 7j, Methyl 2-(1,1-Dioxido-5,10-dioxo-3,4,5,10-tetrahydro-2H-[1,4]thiazino[2,3-g]quinoline-7-carboxamido)acetate]	110	120	250	3400	31	> 260	200 °C (dec.)	–
CCCCCCCCCCCCCCCCOP(=O)([O-])OCC[N+](C)(C)C [Miltefosine, reference compound]	–	–	–	–	–	0.5	–	IC50 ([5]; Leishmania donovani, MHOM/ET/67/L82, axenic amastigote forms, positive control, read-out: IC50 L. donovani): 0.213 µg/mL; IC50 ([5]; MHOM-ET-67/L82, axenic amastigotes, average of two independent assays, read-out: IC50 L. don.): 0.53 µM
O=C(NCCCc1ccccc1)c1ccc2c(n1)C(=O)C1=C(C2=O)S(=O)(=O)C=CN1 [Compound 8f, N-(3-Phenylpropyl)-5,10-dioxo-5,10-dihydro-4H-[1,4]thiazino[2,3-g]quinoline-7-carboxamide 1,1-Dioxide]	6.5	5.9	59	1200	5	> 240	230 °C (dec.)	–
O=C(NCCCc1ccccc1)c1ccc2c(n1)C(=O)C1=C(C2=O)S(=O)(=O)CCN1 [Compound 7f, N-(3-Phenylpropyl)-5,10-dioxo-3,4,5,10-tetrahydro-2H-[1,4]thiazino[2,3-g] quinoline-7-carboxamide 1,1-Dioxide]	13	2.4	27	1400	10	47	204 °C (dec.)	–
CCCCCCCCNC(=O)c1ccc2c(n1)C(=O)C1=C(C2=O)S(=O)(=O)CCN1 [Compound 7c, N-n-Octyl-5,10-dioxo-3,4,5,10-tetrahydro-2H-[1,4]thiazino[2,3-g]quinoline-7-carboxamide 1,1-Dioxide]	12	3.9	15	1100	10	48	200 °C (dec.)	–
O=C(O)c1cc2c(s1)C(=O)C1=C(C2=O)S(=O)(=O)C=CN1 [Compound 12, 5,9-Dioxo-5,9-dihydro-4H-thieno[2′,3′:4,5]benzo[1,2-b][1,4]thiazine-7-carboxylic Acid 1,1-Dioxide]	140	2.2	210	35	4000	> 290	290 °C (dec.)	–
CC(C)=CCC/C(C)=C/CNC(=O)c1ccc2c(n1)C(=O)C1=C(C2=O)S(=O)(=O)CCN1 [Compound 7g, (E)-N-(3,7-Dimethylocta-2,6-dien-1-yl)-5,10-dioxo-3,4,5,10-tetrahydro-2H-[1,4]thiazino [2,3-g]quinoline-7-carboxamide 1,1-Dioxide]	24	3.4	41	1600	15	83	200 °C (dec.)	–
CCCCNC(=O)c1ccc2c(n1)C(=O)C1=C(C2=O)S(=O)(=O)CCN1 [Compound 7a, N-n-Butyl-5,10-dioxo-3,4,5,10-tetrahydro-2H-[1,4]thiazino[2,3-g]quinoline-7-carboxamide 1,1-Dioxide]	24	5.5	63	940	26	> 280	200 °C (dec.)	–
CCCCCNC(=O)c1ccc2c(n1)C(=O)C1=C(C2=O)S(=O)(=O)C=CN1 [Compound 8b, N-n-Pentyl-5,10-dioxo-5,10-dihydro-4H-[1,4]thiazino[2,3-g]quinoline-7-carboxamide 1,1-Dioxide]	4.8	3.6	48	1500	3	> 270	280 °C (dec.)	–
CCN(CC)CCCC(C)Nc1ccnc2cc(Cl)ccc12 (stereo not shown) [Chloroquine, reference compound]	–	–	–	–	–	–	–	IC50 ([4]; Plasmodium falciparum, K1, read-out: IC50 P. falc. K1, K1 dual drug resistant strain, IEF stage, average of two independent assays): 200 nM; IC50 ([4]; Plasmodium falciparum, K1, read-out: IC50 P. falciparum, K1 (chloroquine and pyrimethamine resistant), erythrocytic stages, positive control): 0.065 µg/mL; IC50 ([4]; read-out: IC50 P. falc. K1, K1 dual drug resistant strain, IEF stage, average of two independent assays): 280 nM
CCOC(=O)c1cc2c(o1)C(=O)C1=C(C2=O)S(=O)(=O)CCN1 [Compound 15, Ethyl 5,9-Dioxo-3,4,5,9-tetrahydro-2H-benzofuro[5,6-b][1,4]thiazine-7-carboxylate 1,1-Dioxide]	5.1	1.1	4.7	110	46	40	277 °C	–
COC(=O)c1ccc2c(n1)C(=O)C1=C(C2=O)S(=O)(=O)CCN1 [Compound 3]	140	6.6	180	2500	56	31	–	–
CCCCCNC(=O)c1ccc2c(n1)C(=O)C1=C(C2=O)S(=O)(=O)CCN1 [Compound 7b, N-n-Pentyl-5,10-dioxo-3,4,5,10-tetrahydro-2H-[1,4]thiazino[2,3-g]quinoline-7-carboxamide 1,1-Dioxide]	23	1.8	15	620	37	29	200 °C (dec.)	–
Nc1nc(N)nc(Nc2ccc([As]3SCC(CO)S3)cc2)n1 (stereo not shown) [Melarsoprol, reference compound]	–	–	–	–	–	–	–	IC50 ([2]; Trypanosoma brucei, read-out: IC50 T. b. rhod., STIB 900, trypomastigotes, average of two independent assays): 0.005 µM; IC50 ([2]; Trypanosoma brucei, read-out: IC50 T.b. rhodesiense, STIB900, trypomastigote forms, positive control): 4 ng/mL; IC50 ([2]; read-out: IC50 T. b. rhod., STIB 900, trypomastigotes, average of two independent assays): 0.01 µM
COC(=O)CNC(=O)c1ccc2c(n1)C(=O)C1=C(C2=O)S(=O)(=O)C=CN1 [Compound 8j, Methyl 2-(1,1-dioxido-5,10-dioxo-5,10-dihydro-4H-[1,4]thiazino[2,3-g]quinoline-7-carboxamido)acetate]	100	35	160	1800	57	220	–	–
O=C(O)c1ccc2c(n1)C(=O)C1=C(C2=O)S(=O)(=O)C=CN1 [Compound 4]	180	4	> 290	600	300	190	–	–
COc1cc([C@@H]2c3cc4c(cc3[C@H](O)[C@H]3COC(=O)[C@H]23)OCO4)cc(OC)c1OC [Podophyllotoxin, reference compound]	–	–	–	–	–	–	–	IC50 ([1]; Rattus norvegicus, L6, read-out: IC50 L6 cells, rat skeletal myoblasts, positive control): 4 ng/mL; IC50 ([1]; Rattus norvegicus, Myoblast, read-out: IC50 L6, cytotoxicity, L6 rat skeletal myoblasts, average of two independent assays): 0.01 µM; IC50 ([1]; read-out: IC50 L6, cytotoxicity, L6 rat skeletal myoblasts, average of two independent assays): 0.019 µM
O=C(O)c1ccc2c(n1)C(=O)C1=C(C2=O)S(=O)(=O)CCN1 [Compound 2, ascidiathiazone A]	167	3.1	> 290	3300	50	270	–	IC50 ([1]; cytotoxicity, L6 rat skeletal myoblasts, average of two independent assays, read-out: IC50 L6): 170 µM
COCCNC(=O)c1ccc2c(n1)C(=O)C1=C(C2=O)S(=O)(=O)CCN1 [Compound 7i, N-(2-Methoxyethyl)-5,10-dioxo-3,4,5,10-tetrahydro-2H-[1,4]thiazino[2,3-g] quinoline-7-carboxamide 1,1-Dioxide]	–	–	–	–	–	–	200 °C (dec.)	–
O=C(O)c1cc2c(s1)C(=O)C1=C(NCCS1(=O)=O)C2=O [Compound 11b, 5,9-Dioxo-2,3,5,9-tetrahydro-1H-thieno[3′,2′:4,5]benzo[1,2-b][1,4] thiazine-7-carboxylic Acid 4,4-Dioxide]	–	–	–	–	–	–	200 °C (dec.)	–
COC(=O)c1cc2c(s1)C(=O)C1=C(NCCS1(=O)=O)C2=O [Compound 10b, Methyl 5,9-Dioxo-2,3,5,9-tetrahydro-1H-thieno[3′,2′:4,5]benzo [1,2-b][1,4]thiazine-7-carboxylate 4,4-Dioxide]	–	–	–	–	–	–	280 °C (dec.)	–
O=C(Cn1ccnc1[N+](=O)[O-])NCc1ccccc1 [Benznidazole, reference compound]	–	–	1.8	–	–	–	–	IC50 ([3]; Trypanosoma cruzi, TULAHUEN, Myoblast, in Rattus norvegicus, read-out: IC50 T. cruzi, Tulahuen C2C4, amastigote forms in L6 rat myoblasts, positive control): 0.352 µg/mL; IC50 ([3]; Tulahuen C4, amastigotes, average of two independent assays, read-out: IC50 T. cruzi): 1.4 µM
